Drawing on paper PMC2736202 (2009), this text covers Kd for one compound.

Structures are written as SMILES.

What all share (assay): electrospray mass spectrometry
For assay [1], the system named is UpsB-Q-1 (DNA, G4) CAGGGTTAAGGGTATAACTTTAGGGGTTAGGGTT
The conditions noted are these: NH4+ 150 mM (NH4OAc); 20% methanol; 10 μM DNA, equimolar 10 μM BOQ1 in Figure 6B.

The test system of assay [2] is UpsB-Q-2 (DNA, G4) TAGGGTTAAGGGTATAACGTTAAGGGTTAGGGTT
The conditions noted are these: NH4+ 150 mM (NH4OAc); 20% methanol; 10 μM DNA.

Assay [3] deals with UpsB-Q-3 (DNA, G4) CAGGGTTAAGGGTATACATTTAGGGGTTAGGGTT
The conditions noted are these: NH4+ 150 mM (NH4OAc); 20% methanol; 10 μM DNA.

Assay [4] relates to UpsB-Q-4 (DNA, G4) CAGGGTTTAGGGTATAACTTTAGGGGTTAGGGTT
The settings on record: NH4+ 150 mM (NH4OAc); 20% methanol; 10 μM DNA.

As to `c1cc2nc3c4ccc5cc6cc(ccc6nc53)CNCCNCCNCc3ccc5nc6c(ccc7cc8cc(ccc8nc76)CNCCNCCNCc1cc2c4)cc5c3`, the Kd (as a rule, the free concentration of one partner at which half of the binding sites on the other are occupied at equilibrium, for simple one-to-one binding) amounted to 2.6 ± 0.5 µM in assay [1], 1.4 ± 0.4 µM in assay [2], 1.7 ± 0.7 µM in assay [3] and 2.7 ± 1.1 µM in assay [4].
